These results are taken from patent US20260216374A1, “POU5F1B INHIBITORS” (ECOLE POLYTECHNIQUE FEDERALE DE LAUSANNE (EPFL), priority 2023, published 2026).

“Also recorded” adds a separate entry of the source. Residues, ends and D or L forms follow the SMILES beside them. *: point of attachment. Cbz = O=C(OCc1ccccc1)*

Holding throughout (assay type): cell-based, human
Assay [1] concerns POU5F1B. Kind of assay: Radiolabelling pulse-chase experiment to determine POU5F1B half-life. The settings on record: POU5F1B-overexpressing SW480 cells; ROCK inhibitors 20 μM 24 hours; MG132 10 μM 3 hours. The method, then:
Radiolabelling experiment to determine POU5F1B half-life. POU5F1B-overexpressing SW480 cells treated for 24 hours with capivasertib (20 μM), oxa-06 (20 μM) and Y-27632 (20 μM) ROCK inhibitors, and 3 hours with MG132 (10 μM) proteasome inhibitor, were washed with methionine/cysteine-free medium, incubated for a 20-min pulse at 37° C. with 50 μCi/ml [35S]methionine/cysteine (Hartman Analytics), washed, and further incubated for different times at 37° C. in complete medium with a 10-fold excess of nonradioactive methionine and cysteine. POU5F1B protein was HA-immunoprecipitated, eluted and loaded in SDS-PAGE gels, and autoradiographies were quantified using the Typhoon Imager (Image QuantTool, GE healthcare).

Assay [2] concerns POU5F1B. Kind of assay: Immunoprecipitation of HA-tagged POU5F1B followed by Western blot with phosphoserine-specific antibody. The settings on record: HA-tagged POU5F1B overexpressed in SW480 cells. On the procedure: Immunoprecipitation. Cells were washed three times PBS, lysed 30 min at 4° C. in the following Buffer (0.5% Nonidet P-40, 500 mM Tris pH 7.4, 20 mM EDTA, 10 mM NaF, 2 mM benzamidin and protease inhibitor cocktail (Roche)), and centrifuged 3 min at 5000 rpm. Supernatants were subjected to preclearing with mouse IgG-agarose beads (Sigma A0919) prior immunoprecipitation reaction. Supernatants were incubated overnight with anti HA-agarose beads (Sigma A2095). Similar elution volumes and protein quantities, for the IPs and the inputs, respectively, were submitted to SDS-PAGE and analyzed by immunoblotting using anti-ubiquitin […] (Santa Cruz Biotechnology sc-8017, 1:1,000), HRP-conjugated anti-HA (clone 3F10 Roche 12013819001, 1:1,000), anti-phosphoserine ([…], Sigma) and HRP-conjugated anti-mouse antibody.

A further assay has as its system POU5F1B-DCK. Kind of assay: Dose response assay, BVdU survival of POU5F1B-DCK-overexpressing SW480 cells (POU5F1B-DCK degradation). The conditions noted are these: 0.39-25 μM compound, 500 μM BVdU, reading at 96 h and 120 h. On the procedure: Dose response assays. POU5F1B-DCK-, DCK-overexpressing, and wild type SW480 cells were seeded in 96-well plates at a cell density of 2,000 cells/well in 100 μl of media. At the same time of cell seeding, 100 μM Capivasertib, OXA-06 and Laurocapram dissolved in DMSO were diluted in medium and 20 μl were dispensed in the 96-wells to achieve final concentrations of 0.39, 0.78, 1.56, 3.12, 6.25, 12.5 and 25 μM, keeping the final concentration of DMSO at 0.2% in each well. The next day, 500 μM BVdU (Brivudine H27853, Thermo Fisher) was added in all wells except for non-treated ones. Plate reading was done at 96 h and 120 h post BvDU treatment by measuring fluorescence after incubating the cells with PrestoBlue™ (A13262, Invitrogen) for 30 min.

Assay [3] concerns POU5F1B. Kind of assay: Immunofluorescence of HA-tagged POU5F1B localization in SW480 cells. The conditions noted are these: TAK-243 at 1 μM for 5 hours. On the procedure:
Immunofluorescence. Cell lines were plated on glass coverslips into 24-well plates and cultured for 3 days up to 70% confluence in 500 ng ml^−1 doxycycline-containing medium. When needed, cells were treated with TAK-243, inhibitor of the ubiquitin activating enzyme, at 1 μM for 5 hours. Growth medium was refreshed (1 ml) prior a 15 min fixation with 1 ml 8% paraformaldehyde (PFA) added dropwise. Cells were washed three times with PBS, permeabilized with 0.1% saponin PBS for 20 min, and blocked with 1% BSA 0.1% saponin PBS for 30 min before incubation with anti-HA (bioLegend, Covance catalog #MMS-101P, 1:1,000) antibody in 1% BSA 0.1% saponin PBS 2 h at room temperature (RT) under agitation. Samples were washed three times with PBS and incubated with Alexa 647-conjugated (A647) anti-mouse antibody (1:1,000) in 1% BSA 0.1% saponin PBS for 40 min at RT. Three final washes were performed before mounting the slides in Vectashield with DAPI (Vector Laboratories). Images were acquired on a ZEISS LSM 700 confocal microscopy and analyzed with Fiji software.

With `CC(C)C[C@@H](C=O)NC(=O)[C@H](CC(C)C)NC(=O)[C@H](CC(C)C)NC(=O)OCc1ccccc1` [MG132] (Cbz-Leu-Leu-Leu-aldehyde), the “half-life of POU5F1B (pulse-chase)” value in the assay with POU5F1B [1] is on record as “stabilized”. `C[C@@H](N)[C@H]1CC[C@H](C(=O)Nc2ccncc2)CC1` [Y-27632]: the “wild type POU5F1B phosphoserine signal” value in the assay on POU5F1B [2] was “decreases”. In addition, the “half-life of POU5F1B (pulse-chase)” value with POU5F1B [1] is “reduced”. As to `CCCCCCCCCCCCN1CCCCCC1=O` [laurocapram], the “POU5F1B(-DCK) degradation, read as cell survival after BVdU treatment” value (“POU5F1B(-DCK) degradation, read” for short) in the assay with POU5F1B-DCK is recorded as “degraded”. Turning to `NC1(C(=O)N[C@@H](CCO)c2ccc(Cl)cc2)CCN(c2nc[nH]c3nccc2-3)CC1` [capivasertib], the “wild type POU5F1B phosphoserine signal” value in the assay on POU5F1B [2] was “decreases”. Moreover, the “POU5F1B(-DCK) degradation, read” value in the assay with POU5F1B-DCK is recorded as “degraded”. For the same compound, in the assay on POU5F1B [1], the “half-life of POU5F1B (pulse-chase)” value was “reduced”. Consider `NS(=O)(=O)OC[C@H]1C[C@@H](Nc2ccnc3cc(-c4cccc(SC(F)(F)F)c4)nn23)[C@H](O)[C@@H]1O` [TAK-243], for which the POU5F1B subcellular localization entry with POU5F1B [3] was “triggers the re-localization of POU5F1B to the nucleus; also recorded: re-localization from the cytoplasm to the nucleus”. With `Fc1ccccc1CNCc1ccc(-c2ccnc3[nH]ccc23)cc1` [OXA-06], the “wild type POU5F1B phosphoserine signal” value with POU5F1B [2] is recorded as “decreases”. Moreover, in the assay with POU5F1B-DCK, the “POU5F1B(-DCK) degradation, read” value was “degraded”. Moreover, in the assay on POU5F1B [1], the “half-life of POU5F1B (pulse-chase)” value is “reduced”.
